According to publication PMC9133015 (Nature Communications, 2022):
“And” between values parts separate entries of the source, which are not always exact repeats. Equal entries are not always repeated.

What was measured:
Assay in all cases: Kinase inhibitor specificity profiling (Reaction Biology Corporation)
Format in all cases: biochemical
Set-up in all cases: % Enzyme Activity (relative to DMSO controls): concentration or dose not given beside the values
[1] = target: T1, panel of 370 protein kinases (Homo sapiens, UniProt P52564); conditions: 2 h, kinase MKK6; read-out: % Enzyme Activity (relative to DMSO controls)
T1 construct: purchased Reaction Biology Corporation (assay service)
T1 sequence (P52564 whole entry): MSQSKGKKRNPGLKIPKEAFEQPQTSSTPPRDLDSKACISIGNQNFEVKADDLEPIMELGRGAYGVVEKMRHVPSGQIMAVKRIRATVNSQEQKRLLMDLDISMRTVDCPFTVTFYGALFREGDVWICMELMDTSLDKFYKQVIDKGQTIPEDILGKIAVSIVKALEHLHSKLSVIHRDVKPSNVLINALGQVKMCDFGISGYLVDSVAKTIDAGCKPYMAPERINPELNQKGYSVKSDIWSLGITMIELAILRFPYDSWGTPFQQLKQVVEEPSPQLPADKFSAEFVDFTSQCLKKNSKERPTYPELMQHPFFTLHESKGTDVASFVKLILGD

[2] = target: T2, panel of 370 protein kinases (Homo sapiens, UniProt P50613); conditions: 2 h, kinase CDK7/cyclin H; read-out: % Enzyme Activity (relative to DMSO controls)
T2 construct: purchased Reaction Biology Corporation (assay service)
T2 sequence (P50613 whole entry): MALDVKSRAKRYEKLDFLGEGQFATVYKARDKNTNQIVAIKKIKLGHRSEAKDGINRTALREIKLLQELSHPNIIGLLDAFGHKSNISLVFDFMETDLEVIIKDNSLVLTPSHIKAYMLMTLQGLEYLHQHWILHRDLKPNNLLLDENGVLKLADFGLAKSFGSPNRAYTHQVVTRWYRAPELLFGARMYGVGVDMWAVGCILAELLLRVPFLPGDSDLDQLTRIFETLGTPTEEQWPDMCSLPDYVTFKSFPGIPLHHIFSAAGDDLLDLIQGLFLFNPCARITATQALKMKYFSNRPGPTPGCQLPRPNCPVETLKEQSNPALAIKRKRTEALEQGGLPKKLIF

[3] = target: T3, panel of 370 protein kinases (Homo sapiens, UniProt P53671); conditions: 2 h, kinase LIMK2; read-out: % Enzyme Activity (relative to DMSO controls)
T3 construct: purchased Reaction Biology Corporation (assay service)

[4] = target: T4, panel of 370 protein kinases (Homo sapiens, UniProt O43781); conditions: 2 h, kinase DYRK3; read-out: % Enzyme Activity (relative to DMSO controls)
T4 construct: purchased Reaction Biology Corporation (assay service)
T4 sequence (O43781 whole entry): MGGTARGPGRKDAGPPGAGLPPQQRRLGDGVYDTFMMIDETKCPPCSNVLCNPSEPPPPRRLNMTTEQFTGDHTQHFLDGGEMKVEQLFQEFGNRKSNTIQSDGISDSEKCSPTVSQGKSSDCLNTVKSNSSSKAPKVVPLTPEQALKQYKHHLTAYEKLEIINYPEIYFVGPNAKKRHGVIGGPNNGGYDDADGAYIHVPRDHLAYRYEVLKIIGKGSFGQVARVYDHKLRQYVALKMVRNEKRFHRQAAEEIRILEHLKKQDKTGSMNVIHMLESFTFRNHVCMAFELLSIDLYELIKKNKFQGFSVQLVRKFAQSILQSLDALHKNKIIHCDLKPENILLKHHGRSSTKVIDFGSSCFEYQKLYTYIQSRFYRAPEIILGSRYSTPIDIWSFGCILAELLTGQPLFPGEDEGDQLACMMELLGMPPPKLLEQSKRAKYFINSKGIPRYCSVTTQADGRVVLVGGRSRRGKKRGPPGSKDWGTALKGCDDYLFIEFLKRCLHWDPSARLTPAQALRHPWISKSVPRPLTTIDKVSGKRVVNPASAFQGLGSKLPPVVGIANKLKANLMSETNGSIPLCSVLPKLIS

[5] = target: T5, panel of 370 protein kinases (Homo sapiens, UniProt Q06187); conditions: kinase BTK
T5 construct: purchased Reaction Biology Corporation (assay service)
T5 sequence (Q06187 whole entry): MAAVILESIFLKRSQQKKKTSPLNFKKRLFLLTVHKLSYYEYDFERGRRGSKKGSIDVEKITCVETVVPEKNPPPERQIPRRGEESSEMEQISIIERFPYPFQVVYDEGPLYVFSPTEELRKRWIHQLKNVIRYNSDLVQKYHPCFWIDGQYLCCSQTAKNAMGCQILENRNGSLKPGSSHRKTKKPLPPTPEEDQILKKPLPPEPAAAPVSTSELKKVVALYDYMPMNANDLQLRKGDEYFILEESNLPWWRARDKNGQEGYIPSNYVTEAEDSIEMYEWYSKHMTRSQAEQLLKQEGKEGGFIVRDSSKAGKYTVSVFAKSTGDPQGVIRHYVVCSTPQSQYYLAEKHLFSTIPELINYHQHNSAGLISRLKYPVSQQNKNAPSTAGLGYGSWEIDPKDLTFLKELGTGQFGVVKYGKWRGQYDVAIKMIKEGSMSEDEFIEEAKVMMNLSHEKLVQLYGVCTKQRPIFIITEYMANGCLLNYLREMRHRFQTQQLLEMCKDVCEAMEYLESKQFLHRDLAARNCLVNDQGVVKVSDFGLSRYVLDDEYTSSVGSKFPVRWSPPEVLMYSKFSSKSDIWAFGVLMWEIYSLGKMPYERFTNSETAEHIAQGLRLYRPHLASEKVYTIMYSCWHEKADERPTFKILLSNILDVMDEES

[6] = target: T6, panel of 370 protein kinases (Homo sapiens, UniProt Q9H422); conditions: 2 h, kinase HIPK3; read-out: % Enzyme Activity (relative to DMSO controls)
T6 construct: purchased Reaction Biology Corporation (assay service)

[7] = target: T7, panel of 370 protein kinases (Homo sapiens, UniProt P41279); conditions: 2 h, kinase COT1/MAP3K8; read-out: % Enzyme Activity (relative to DMSO controls)
T7 construct: purchased Reaction Biology Corporation (assay service)

[8] = target: T8, panel of 370 protein kinases (Homo sapiens, UniProt O75676); conditions: 2 h, kinase MSK2/RPS6KA4; read-out: % Enzyme Activity (relative to DMSO controls)
T8 construct: purchased Reaction Biology Corporation (assay service)

[9] = target: T9, panel of 370 protein kinases (Homo sapiens, UniProt P54753); conditions: 2 h, kinase EPHB3; read-out: % Enzyme Activity (relative to DMSO controls)
T9 construct: purchased Reaction Biology Corporation (assay service)
T9 sequence (P54753 34-998): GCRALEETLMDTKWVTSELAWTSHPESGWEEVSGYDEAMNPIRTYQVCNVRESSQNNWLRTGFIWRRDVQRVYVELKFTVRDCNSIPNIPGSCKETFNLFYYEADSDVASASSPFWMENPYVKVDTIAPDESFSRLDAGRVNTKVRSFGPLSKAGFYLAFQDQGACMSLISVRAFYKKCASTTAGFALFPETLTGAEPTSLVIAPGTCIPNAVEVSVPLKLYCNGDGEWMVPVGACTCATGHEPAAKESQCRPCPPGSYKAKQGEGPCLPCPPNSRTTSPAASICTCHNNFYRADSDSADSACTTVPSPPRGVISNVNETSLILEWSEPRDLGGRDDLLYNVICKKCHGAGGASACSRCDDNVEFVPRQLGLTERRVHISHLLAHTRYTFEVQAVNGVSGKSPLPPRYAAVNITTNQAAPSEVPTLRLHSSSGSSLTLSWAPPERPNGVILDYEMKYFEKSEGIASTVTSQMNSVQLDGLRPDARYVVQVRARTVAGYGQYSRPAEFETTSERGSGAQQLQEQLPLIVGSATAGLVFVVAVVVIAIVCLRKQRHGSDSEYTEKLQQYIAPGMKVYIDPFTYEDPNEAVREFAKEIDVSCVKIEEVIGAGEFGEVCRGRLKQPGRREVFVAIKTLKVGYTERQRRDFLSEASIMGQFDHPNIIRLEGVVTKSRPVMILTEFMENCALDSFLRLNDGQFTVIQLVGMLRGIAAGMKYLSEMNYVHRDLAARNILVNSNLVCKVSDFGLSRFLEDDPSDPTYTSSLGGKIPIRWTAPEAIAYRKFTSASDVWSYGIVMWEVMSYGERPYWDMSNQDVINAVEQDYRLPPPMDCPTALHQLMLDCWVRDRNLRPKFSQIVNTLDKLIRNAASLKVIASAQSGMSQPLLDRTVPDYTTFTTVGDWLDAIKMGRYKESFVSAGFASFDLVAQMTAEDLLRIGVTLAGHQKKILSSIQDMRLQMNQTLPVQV

[10] = target: T10, panel of 370 protein kinases (Homo sapiens, UniProt Q8IW41); conditions: 2 h, kinase MAPKAPK5/PRAK; read-out: % Enzyme Activity (relative to DMSO controls)
T10 construct: purchased Reaction Biology Corporation (assay service)

[11] = target: T11, panel of 370 protein kinases (Homo sapiens, UniProt Q14680); conditions: 2 h, kinase MELK; read-out: % Enzyme Activity (relative to DMSO controls)
T11 construct: purchased Reaction Biology Corporation (assay service)

[12] = target: T12, panel of 370 protein kinases (Homo sapiens, UniProt Q13237); conditions: 2 h, kinase PKG2/PRKG2; read-out: % Enzyme Activity (relative to DMSO controls)
T12 construct: purchased Reaction Biology Corporation (assay service)
T12 sequence (Q13237 whole entry): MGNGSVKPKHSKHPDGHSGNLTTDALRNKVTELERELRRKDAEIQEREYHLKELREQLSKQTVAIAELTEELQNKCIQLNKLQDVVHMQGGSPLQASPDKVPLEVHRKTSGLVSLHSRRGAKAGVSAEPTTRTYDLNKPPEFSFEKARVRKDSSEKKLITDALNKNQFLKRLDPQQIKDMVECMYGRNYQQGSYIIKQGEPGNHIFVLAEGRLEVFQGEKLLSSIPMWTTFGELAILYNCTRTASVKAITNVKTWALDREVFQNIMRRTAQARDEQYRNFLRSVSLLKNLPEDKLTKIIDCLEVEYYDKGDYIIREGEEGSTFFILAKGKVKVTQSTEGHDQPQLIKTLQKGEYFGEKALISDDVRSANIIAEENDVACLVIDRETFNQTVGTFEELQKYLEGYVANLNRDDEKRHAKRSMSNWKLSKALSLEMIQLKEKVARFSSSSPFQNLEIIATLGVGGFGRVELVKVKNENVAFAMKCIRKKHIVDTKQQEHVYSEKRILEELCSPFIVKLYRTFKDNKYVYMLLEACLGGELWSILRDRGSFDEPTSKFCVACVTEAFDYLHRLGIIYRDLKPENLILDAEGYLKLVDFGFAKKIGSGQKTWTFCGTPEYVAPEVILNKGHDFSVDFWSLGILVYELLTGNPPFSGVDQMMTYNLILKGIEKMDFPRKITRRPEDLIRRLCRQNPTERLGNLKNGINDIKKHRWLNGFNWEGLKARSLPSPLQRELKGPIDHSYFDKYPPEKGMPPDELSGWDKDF

[13] = target: T13, panel of 370 protein kinases (Homo sapiens, UniProt Q56UN5); conditions: 2 h, kinase YSK4/MAP3K19; read-out: % Enzyme Activity (relative to DMSO controls)
T13 construct: purchased Reaction Biology Corporation (assay service)

[14] = target: T14, panel of 370 protein kinases (Homo sapiens, UniProt O94804); conditions: kinase LOK/STK10
T14 construct: purchased Reaction Biology Corporation (assay service)
T14 sequence (O94804 whole entry): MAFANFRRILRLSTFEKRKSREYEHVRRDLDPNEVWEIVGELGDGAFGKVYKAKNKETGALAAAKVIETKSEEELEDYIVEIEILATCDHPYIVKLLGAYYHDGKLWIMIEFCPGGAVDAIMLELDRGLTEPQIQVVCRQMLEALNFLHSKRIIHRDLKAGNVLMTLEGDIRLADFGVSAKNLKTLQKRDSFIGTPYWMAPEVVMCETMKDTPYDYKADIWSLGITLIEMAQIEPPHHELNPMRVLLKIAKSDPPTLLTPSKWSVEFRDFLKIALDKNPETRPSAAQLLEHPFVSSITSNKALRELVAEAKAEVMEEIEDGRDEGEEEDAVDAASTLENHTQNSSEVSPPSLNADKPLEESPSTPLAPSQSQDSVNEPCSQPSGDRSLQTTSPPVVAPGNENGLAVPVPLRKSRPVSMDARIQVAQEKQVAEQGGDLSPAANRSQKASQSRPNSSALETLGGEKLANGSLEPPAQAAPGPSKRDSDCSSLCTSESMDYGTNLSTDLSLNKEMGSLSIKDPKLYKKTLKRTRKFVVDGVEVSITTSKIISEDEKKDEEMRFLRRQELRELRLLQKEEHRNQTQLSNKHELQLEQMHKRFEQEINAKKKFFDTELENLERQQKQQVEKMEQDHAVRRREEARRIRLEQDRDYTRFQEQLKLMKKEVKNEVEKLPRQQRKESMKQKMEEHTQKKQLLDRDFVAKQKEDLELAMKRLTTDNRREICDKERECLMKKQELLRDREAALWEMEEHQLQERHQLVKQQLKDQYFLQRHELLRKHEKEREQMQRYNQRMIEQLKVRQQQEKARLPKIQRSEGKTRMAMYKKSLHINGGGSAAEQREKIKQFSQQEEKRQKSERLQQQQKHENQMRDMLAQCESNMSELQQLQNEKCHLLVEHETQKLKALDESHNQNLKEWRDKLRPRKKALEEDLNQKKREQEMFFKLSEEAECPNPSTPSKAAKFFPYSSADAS

[15] = target: T15, panel of 370 protein kinases (Homo sapiens, UniProt Q8IU85); conditions: 2 h, kinase CAMK1d; read-out: % Enzyme Activity (relative to DMSO controls)
T15 construct: purchased Reaction Biology Corporation (assay service)
T15 sequence (Q8IU85 whole entry): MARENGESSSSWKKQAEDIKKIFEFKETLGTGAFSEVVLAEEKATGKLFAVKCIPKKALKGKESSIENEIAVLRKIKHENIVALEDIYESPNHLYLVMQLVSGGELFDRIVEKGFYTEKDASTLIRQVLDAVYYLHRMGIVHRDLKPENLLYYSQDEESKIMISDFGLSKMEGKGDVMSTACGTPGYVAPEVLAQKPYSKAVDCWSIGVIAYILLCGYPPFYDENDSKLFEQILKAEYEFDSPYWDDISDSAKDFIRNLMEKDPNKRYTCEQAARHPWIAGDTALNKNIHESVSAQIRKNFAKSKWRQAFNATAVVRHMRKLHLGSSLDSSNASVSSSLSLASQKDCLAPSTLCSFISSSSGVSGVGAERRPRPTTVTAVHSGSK

[16] = target: T16, panel of 370 protein kinases (Homo sapiens, UniProt Q86Z02); conditions: 2 h, kinase HIPK1; read-out: % Enzyme Activity (relative to DMSO controls)
T16 construct: purchased Reaction Biology Corporation (assay service)

[17] = target: T17, panel of 370 protein kinases (Homo sapiens, UniProt Q9Y4K4); conditions: 2 h, kinase KHS/MAP4K5; read-out: % Enzyme Activity (relative to DMSO controls)
T17 construct: purchased Reaction Biology Corporation (assay service)

[18] = target: T18, panel of 370 protein kinases (Homo sapiens, UniProt Q15208); conditions: 2 h, kinase STK38/NDR1; read-out: % Enzyme Activity (relative to DMSO controls)
T18 construct: purchased Reaction Biology Corporation (assay service)

[19] = target: T19, panel of 370 protein kinases (Homo sapiens, UniProt P36507); conditions: 2 h, kinase MEK2; read-out: % Enzyme Activity (relative to DMSO controls)
T19 construct: purchased Reaction Biology Corporation (assay service)

[20] = target: T20, panel of 370 protein kinases (Homo sapiens, UniProt Q9UEW8); conditions: 2 h, kinase STK39/STLK3; read-out: % Enzyme Activity (relative to DMSO controls)
T20 construct: purchased Reaction Biology Corporation (assay service)

[21] = target: T21, panel of 370 protein kinases (Homo sapiens, UniProt Q96KB5); conditions: 2 h, kinase PBK/TOPK; read-out: % Enzyme Activity (relative to DMSO controls)
T21 construct: purchased Reaction Biology Corporation (assay service)

## CCN1CCN(C(=O)c2ccc(Nc3ncc(F)c(-c4ccc5nc(N(C)C)sc5c4)n3)nc2)CC1 [YK-2-69]
[1]
  remaining activity at 1 µM: 89.5%
[2]
  remaining activity at 1 µM: 99.1%
[3]
  remaining activity at 1 µM: 95%
[4]
  remaining activity at 1 µM: 50.9%
[5]
  % Enzyme Activity (relative to DMSO controls): 90.26% and 87.58%
[6]
  remaining activity at 1 µM: 49.6%
[7]
  remaining activity at 1 µM: 96.1%
[8]
  remaining activity at 1 µM: 96.2%
[9]
  remaining activity at 1 µM: 112%
[10]
  remaining activity at 1 µM: 98.5%
[11]
  remaining activity at 1 µM: 101%
[12]
  remaining activity at 1 µM: 94.6%
[13]
  remaining activity at 1 µM: 97.8%
[14]
  % Enzyme Activity (relative to DMSO controls): 97.88% and 97.48%
[15]
  remaining activity at 1 µM: 84.3%
[16]
  remaining activity at 1 µM: 106%
[17]
  remaining activity at 1 µM: 101%
[18]
  remaining activity at 1 µM: 85.5%
[19]
  remaining activity at 1 µM: 97.4%
[20]
  remaining activity at 1 µM: 39.9%
[21]
  remaining activity at 1 µM: 108%
